B1: LigF2: Novosphingobium aromaticivorans putative beta-etherase, glutathione S-transferase-like polypeptide LigF-2 (protein)
chain: MALKYYHAEPLANSLKSMVPLKEKGLAYESIYVDLHKFEQHQPWFTAINPEGQVPVLDHDGTIITHTTVINEYLEDAFPDAQPADAPLRPRDPVGAARMRYWNKFIDEHVMNYVSMHGWHRMVGVIARNIASGDFEKLLESIPLPDQRKKWATARSGFSEADLANATAKIEYALDKVEKQLGETKWLAGDTYTLADINFYSHCGAMVERMFPEMEVARRAPRLCEWRDRVAARPAVAEALKSEDRTAPGLRVWSGEVR
B2: ligE1: Novosphingobium aromaticivorans putative beta-etherase, glutathione S-transferase-like polypeptide, GenBank ABD26841.1, expressed in E. coli (protein)
chain: MAANNTITFYDLALSTGATISPFVWATKYALKHKGFDLDVVPGGFTGILERTGGKTERLPAIVDDGEFVLDSWGIVEYLDAKYPDRPVLIPHESVAATLKALDNWFWNAAVGPWMFCFCQDYRDLSLPQDHEYVTHSREKMLGRKLEEVQAGREERLPKISAALEPLRAALAQHQWLGGSSPNYADYRIMGGILFTASVCKTPVLANDDPLRDWIERCLDLYGGLGRHPGLFPLFGLEQREGDPDLFNRAAGQGGIYKRNTGPESTRAETQRITEGMKK
B3: LigF: Sphingomonas paucimobilis beta-etherase LigF, positive control polypeptide (protein)
chain: MTLKLYSFGPGANSLKPLATLYEKGLEFEQVFVDPSKFEQHSDWFKKINPRGQVPALWHDGKVVTESTVICEYLEDVFPESGNSLRPADPFKRAEMRVWTKWVDEYFCWCVSTIGWAFGIKAIAQKMSDEEFEEHINKNVPIPEQQLKWRRARNGFPQEMLDEEFRKVGVSVARLEETLSKQDYLVDTGYSLADICNFAIANGLQRPGGFFGDYVNQEKTPGLCAWLDRINARPAIKEMFEKSKREDLLKRQNEKVA
B4: ligE: Sphingomonas paucimobilis beta-etherase LigE, positive control polypeptide (protein)
chain: MARNNTITLYDLQLESGCTISPYVWRTKYALKHKGFDIDIVPGGFTGILERTGGRSERVPVIVDDGEWVLDSWVIAEYLDEKYPDRPMLFEGPTQKNLMKFLDNWLWSTAVGPWFRCYILDYHDLSLPQDRDYVRWSREQWFLGGQRLEDVQAGREDRLPLVPPTLEPFRRILAETKWLGGDQPNFADYSALAVFLWTASVARTPPLTEDDPLRDWLDRGFDLFDGLGRHPGMNPLFGLKLREGDPEPFVRQTGPAGAGGQALNKGPQTTKMPPRVAEKAD
B5: ABD27309.1: Novosphingobium aromaticivorans putative beta-etherase polypeptide LigF-3 (protein)
chain: MDEVSLYHWEPNANSGKPMLALMEKGVPFSSHYIDMLQFDQHKPEYLAINPQGTIPAMTHNGQVLTESTAIMEYVNDRFDGPDLMPADAQDRWRVRWWMKFMDQWLGPSFSMIGWSVFVGPMVRQRDPAELAAAIDRIPLPERRTAWRKAINGDFSESEMAESRRRVGLGIAKLEEELGKRPYVGSNQYSLADINIFNSTYSLPISQPDLAGKDRTPNIMRWLKRVYTREAVKKTWAMGKTDLAHRYGLIMAEIEG
B6: ABD26530.1: Novosphingobium aromaticivorans putative beta-etherase polypeptide LigF-1 (protein)
chain: MVIPLGEDNTIMLKLYSFGPAANSMKPLLTVFEKGLDVEKHRLDPAKFEHHTDWFKAINPRGQVPALVDGDKVVTESTVICEYLEDEYPTEVALRPADSFGKAQMRIWTKWVDEYFCWCVSTIGWHRYVGNMVKSLSDAEFEEKVKAIPVIEQQVKWRRAREGFPQDMLDEEMRKIAYSVRKLDDHLADHEWLVPGQYTLADICNFAIANGMQFGFAELVNKQDTPHLVRWIEQINERPAVKQMFAQVELEKLGPRE

Test system in the first data set: not listed separately
Description: in vitro biochemical assay for beta-etherase activity on fluorescent substrate MUAV (4MU formation). The following applies: E. coli cell extracts expressing the protein; 0.1 mM MUAV substrate. An excerpt: The model substrate synthesis 150 for use in the biochemical screening for selective activity can be outsourced through a contract research organization (CRO). The enzyme discovery effort can initially be focused on identifying potential beta-etherase candidate genes identified through bioinformatic methods. […] The fluorescent substrate α-O-(β-methylumbelliferyl) acetovanillone (MUAV), for example, can be used in in vitro assays to identify beta-etherase function (Acme Biosciences, Mt. View, Calif.). The formation of 4 methylumbelliferone (4MU) upon hydrolysis of the aryl ether bond can be monitored by fluorescence, for example, at λex=365 nm and λem=450 nm (or 460 nm).
The enzyme screening 155 is done to identify novel etherases 160. […] Expression of the beta-etherase genes can be done in 5 ml or 25 ml samples of the recombinant E. coli strains in LB medium using induction with IPTG. Following induction, and cell harvest, cell pellets can be lysed using the BPER (Invitrogen) cell lysis system. […] The formation of 4 methylumbelliferone (4MU) upon hydrolysis of the aryl ether bond in MUAV can be monitored by fluorescence at λex=365 nm and λem=460 nm, and can provide quantitative measurement of beta-etherase function. Cell extracts of E. coli transformed with the S. paucimobilis ligE and ligF genes can be the assay positive controls. Test or unknown samples can include, for example, E. coli strains expressing putative beta-etherase genes from N. aromaticovorans.
This example describes a method for gene expression in E. coli, as well as beta-etherase biochemical assays. Expression of known and putative beta-etherase genes was performed using 5 ml cultures of the recombinant E. coli strains described herein in Luria Broth medium by induction of gene expression using isopropylthiogalactoside (IPTG) to a final concentration of 0.1 mM. Following induction, and cell harvest, the cells were disrupted using either sonication or the BPER (Invitrogen) cell lysis system.
In vitro reactions were performed in a total volume of 200 ul and contained: 25 mM TrisHCl pH 7.5; 0.5 mM dithiothreitol; 1 mM glutathione; 0.05 mM or 0.1 mM MUAV; 10 ul of clarified cell extract used to initiate the reactions. Following incubation for 2.5 hours at room temperature, a 50 ul sample of the reactions was terminated using 150 uL of 300 mM glycine/NaOH buffer pH 9. The formation of 4 methylumbelliferone (4MU) upon hydrolysis of the aryl ether bond was monitored by the increase in fluorescence at λex=360 nm and λem=450 nm using a Spectramax UV/visible/fluorescent spectrophotometer.
The total protein concentrations of the cell lysates were determined using the BCA reagent system for protein quantification (Pierce).
Induction might be also performed using IPTG concentrations in the range of 0.01-1 mM. Cell disruption might be also performed using toluene permeabilization, French, pressure techniques, or using multiple freeze/thaw cycles in conjunction with lysozyme. Assay conditions might be varied to include TrisHCl at 10-150 mM concentrations and in the pH range of 6.5-8.5; 0-2 mM dithiothreitol; 0.05-2 mM glutathione; 0.01-5 mM MUAV substrate; 22-42° C. reaction temperatures. The biochemical assay might be performed as a fixed time point assay with reaction times ranging from 5 minutes-12 hours, or performed continuously without quenching with glycine/NaOH buffer to extract enzyme kinetic parameters.
Regarding B1, the “total activity (beta-etherase)” value is 1206 rfu/ug. As for B2, the “total activity (beta-etherase)” value turned out to be 529 rfu/ug.

Turning to B3, the “total activity (beta-etherase)” value is reported as 558 rfu/ug. The same measure, in the same setting: as for B4, the figure is 7 rfu/ug.

The data set is the same for the next values; noted with them: MUAV substrate; compared with S. paucimobilis LigF.
With B1, the “efficiency relative to S. paucimobilis LigF protein” value was “approximately 2 fold”.

The data set is the same for the next values; noted with them: MUAV substrate; compared with S. paucimobilis ligE.
Consider B2, for which the “efficiency relative to S. paucimobilis ligE beta-etherase” value was “approximately 75 fold”.

Staying with this data set, now noted: recombinant polypeptide expressed in E. coli.
As for B5, the “beta-etherase activity on the MUAV substrate (in words)” value is reported as “beta-etherase activity”. On the same count and under the same terms, next, B1: “beta-etherase activity”; B2: “beta-etherase activity”; B6: “beta-etherase activity”.

The next data set has as its system Saccharomyces cerevisiae.
Test: not given
The settings on record: stated as background; cited from earlier work.
In the case of `COc1ccc(C=O)cc1OC` [Veratraldehyde], the “antifungal activities against the yeast Saccharomyces cerevisiae” value (“antifungal activities” below) is “significant antifungal activities”. On to `O=C(O)C=Cc1ccccc1` [cinnamic acid], for which the “antifungal activities” value was “significant antifungal activities”.

As to `O=C(O)/C=C/c1cccc(O)c1` [m-coumaric acid], the “antifungal activities” value was “significant antifungal activities”. With `O=C(O)/C=C/c1ccccc1O` [o-coumaric acid], the “antifungal activities” value was “significant antifungal activities”. As to `O=C(O)/C=C/c1ccc(O)cc1` [p-coumaric acid], the “antifungal activities” value was “significant antifungal activities”. `COc1cc(C(=O)O)ccc1O` [vanillic acid]: the “antifungal activities” value is reported as “significant antifungal activities”. Regarding `COc1cc(CCC(C)=O)ccc1O` [vanillylacetone], the “antifungal activities” value was “significant antifungal activities”.

The test system of the next data set is Escherichia coli.
Test: not given
The following applies: benzaldehyde derivatives; stated as demonstrated; cited from earlier work.
In the case of `O=Cc1ccc(O)c(O)c1O` [2,3,4-trihydroxybenzaldehyde], the “antibacterial activity against Escherichia coli” value is “antibacterial activity”. `O=Cc1cccc(O)c1O` [2,3-dihydroxybenzaldehyde]: the “antibacterial activity against Escherichia coli” value was “antibacterial activity”. As for `O=Cc1c(O)cc(O)cc1O` [2,4,6-trihydroxybenzaldehyde], the “antibacterial activity against Escherichia coli” value is on record as “antibacterial activity”. `O=Cc1ccc(O)cc1O` [2,4-dihydroxybenzaldehyde]: the “antibacterial activity against Escherichia coli” value is “antibacterial activity”.

For `O=Cc1cc(O)ccc1O` [2,5-dihydroxybenzaldehyde], the “antibacterial activity against Escherichia coli” value is “antibacterial activity”. With `COc1cccc(C=O)c1O` [2-hydroxy-3-methoxybenzaldehyde], the “antibacterial activity against Escherichia coli” value is “antibacterial activity”. Take `COc1ccc(O)c(C=O)c1` [2-hydroxy-5-methoxybenzaldehyde]: the “antibacterial activity against Escherichia coli” value is given as “antibacterial activity”. In the case of `O=Cc1ccccc1O` [2-hydroxybenzaldehyde], the “antibacterial activity against Escherichia coli” value is “antibacterial activity”. For the molecule `COc1cc(O)cc(OC)c1C=O` [4-hydroxy-2,6-dimethoxybenzaldehyde], the “antibacterial activity against Escherichia coli” value is on record as “antibacterial activity”.

Staying with this data set, now noted: stated as known; cited from earlier work.
In the case of `O=Cc1ccc(O)cc1` [4-hydroxybenzaldehyde], the “antimicrobial activity against Escherichia coli” value is reported as “antimicrobial activity”.

Turning to `O=Cc1ccc(CO)o1` [5-hydroxymethylfurfural], the “antimicrobial activity against Escherichia coli” value is reported as “antimicrobial activity”. On to `O=Cc1ccco1` [furfural], for which the “antimicrobial activity against Escherichia coli” value was “antimicrobial activity”. Turning to `COc1cc(C=O)cc(OC)c1O` [syringaldehyde], the “antimicrobial activity against Escherichia coli” value was “antimicrobial activity”. Take `COc1cc(C=O)ccc1O` [vanillin]: the “antimicrobial activity against Escherichia coli” value is “antimicrobial activity”.

Values taken from US20120196334A1, “LIGF-TYPE ENZYMES FOR BIOCONVERSION OF LIGNIN-DERIVED COMPOUNDS” (priority 2010, published 2012).
